Source: ChEMBL document CHEMBL5380807, “Imidazo[1,2-a]Pyridine Derivatives as Novel Dual-Target Inhibitors of ABCB1 and ABCG2 for Reversing Multidrug Resistance” (J Med Chem, 2023)
Calls of active or inactive are those of the source. The rule behind the calls is not given here.

Columns and labels:
[1] = Cytotoxicity against human K562/A02 cells overexpressing ABCB1 assessed as decrease in cell survival rate incubated for 72 hrs by MTS assay; assay type: toxicity, cell-based
[2] = Cytotoxicity against human K562 cells assessed as decrease in cell survival rate incubated for 72 hrs by MTS assay; assay type: toxicity, cell-based
K562/A02 = assay: Reversal of ABCB1 mediated adriamycin resistance in human K562/A02 overexpressing ABCB1 assessed as decrease in survival rate at 1.25 to 5 uM preincubated for 1 hrs followed by adriamycin addition and measured after 72 hrs by MTS assay; assay type: functional, cell-based; conditions: dose 1.25-5 µM, time 73.0 hrs
K562 = assay: Reversal of ABCB1 mediated adriamycin resistance in human K562 assessed as decrease in survival rate at 1.25 to 5 uM preincubated for 1 hrs followed by adriamycin addition and measured after 72 hrs by MTS assay; assay type: functional, cell-based; conditions: dose 1.25-5 µM, time 73.0 hrs

## O=C(Cn1cnnc1)Nc1ccc(-c2nc3ccccn3c2CN2CCN(c3ccccc3)CC2)cc1
[1]
  IC50 at 72 h: > 100 µM
[2]
  IC50 at 72 h: > 100 µM

## COc1ccc(OCC(=O)Nc2ccc(-c3nc4ccccn4c3CN3CCc4cc(OC)c(OC)cc4C3)cc2)cc1
[1]
  IC50 at 72 h: > 100 µM
[2]
  IC50 at 72 h: > 100 µM

## COc1cc2c(cc1OC)CN(Cc1c(-c3ccc(NC(=O)CN4CCN(c5ccc(OC(F)(F)F)cc5)CC4)cc3)nc3ccccn13)CC2
[1]
  IC50 at 72 h: 81.2 µM
[2]
  IC50 at 72 h: 83.7 µM

## COc1cc2c(cc1OC)CN(Cc1c(-c3ccc(NC(=O)CCN4CCN(c5ccccc5)CC4)cc3)nc3ccccn13)CC2
[1]
  IC50 at 72 h: 30.6 µM
[2]
  IC50 at 72 h: 93.1 µM

## O=C(/C=C/c1ccccc1)Nc1ccc(-c2nc3ccccn3c2CN2CCN(c3ccccc3)CC2)cc1
[1]
  IC50 at 72 h: > 100 µM
[2]
  IC50 at 72 h: > 100 µM

## CN1CCN(CC(=O)Nc2ccc(-c3nc4ccccn4c3CN3CCN(c4ccccc4)CC3)cc2)CC1
[1]
  IC50 at 72 h: 54.6 µM
[2]
  IC50 at 72 h: 21.4 µM

## COc1cc2c(cc1OC)CN(Cc1c(-c3ccc(NC(=O)CN(C)C)cc3)nc3ccccn13)CC2
[1]
  IC50 at 72 h: > 100 µM
[2]
  IC50 at 72 h: > 100 µM

## O=C1CCCN1c1ccc(-c2nc3ccccn3c2CN2CCN(c3ccccc3)CC2)cc1
[1]
  IC50 at 72 h: > 100 µM
[2]
  IC50 at 72 h: > 100 µM

## O=C(/C=C/c1ccc(F)cc1)Nc1ccc(-c2nc3ccccn3c2CN2CCN(c3ccccc3)CC2)cc1
K562/A02
  Activity: Active
[1]
  IC50 at 72 h: > 100 µM
[2]
  IC50 at 72 h: > 100 µM
K562
  Activity: inactive

## O=C(/C=C/c1ccc([N+](=O)[O-])cc1)Nc1ccc(-c2nc3ccccn3c2CN2CCN(c3ccccc3)CC2)cc1
[1]
  IC50 at 72 h: 48.7 µM
[2]
  IC50 at 72 h: 10.7 µM

## O=C(CCn1cnnc1)Nc1ccc(-c2nc3ccccn3c2CN2CCN(c3ccccc3)CC2)cc1
[1]
  IC50 at 72 h: > 100 µM
[2]
  IC50 at 72 h: > 100 µM

## O=C(CNCc1ccccc1)Nc1ccc(-c2nc3ccccn3c2CN2CCN(c3ccccc3)CC2)cc1
K562/A02
  Activity: Active
[1]
  IC50 at 72 h: 28.8 µM
[2]
  IC50 at 72 h: 25.8 µM
K562
  Activity: inactive

## CN(C)CC(=O)Nc1ccc(-c2nc3ccccn3c2CN2CCN(c3ccccc3)CC2)cc1
[1]
  IC50 at 72 h: 51.2 µM
[2]
  IC50 at 72 h: 25.2 µM

## O=C(CN1CCN(c2ccccc2)CC1)Nc1ccc(-c2nc3ccccn3c2CN2CCN(c3ccccc3)CC2)cc1
[1]
  IC50 at 72 h: > 100 µM
[2]
  IC50 at 72 h: > 100 µM

## O=C1CCN1c1ccc(-c2nc3ccccn3c2CN2CCN(c3ccccc3)CC2)cc1
[1]
  IC50 at 72 h: 45.5 µM
[2]
  IC50 at 72 h: 10.5 µM

## COc1cc2c(cc1OC)CN(Cc1c(-c3ccc(NC(=O)COc4ccccc4)cc3)nc3ccccn13)CC2
K562/A02
  Activity: Active
[1]
  IC50 at 72 h: > 100 µM
[2]
  IC50 at 72 h: > 100 µM
K562
  Activity: inactive

## COc1cc2c(cc1OC)CN(Cc1c(-c3ccc(NC(=O)CN4CCN(c5ccccc5)CC4)cc3)nc3ccccn13)CC2
[1]
  IC50 at 72 h: > 100 µM
[2]
  IC50 at 72 h: > 100 µM

## COc1cccc(OCC(=O)Nc2ccc(-c3nc4ccccn4c3CN3CCc4cc(OC)c(OC)cc4C3)cc2)c1
[1]
  IC50 at 72 h: > 100 µM
[2]
  IC50 at 72 h: > 100 µM

## Cc1ccc(/C=C/C(=O)Nc2ccc(-c3nc4ccccn4c3CN3CCN(c4ccccc4)CC3)cc2)cc1
[1]
  IC50 at 72 h: > 100 µM
[2]
  IC50 at 72 h: 32.8 µM

## COc1cc(/C=C/C(=O)Nc2ccc(-c3nc4ccccn4c3CN3CCN(c4ccccc4)CC3)cc2)cc(OC)c1OC
K562/A02
  Activity: Active
[1]
  IC50 at 72 h: > 100 µM
[2]
  IC50 at 72 h: > 100 µM
K562
  Activity: inactive

## COc1cc2c(cc1OC)CN(Cc1c(-c3ccc(NC(=O)COc4cccc5cccnc45)cc3)nc3ccccn13)CC2
[1]
  IC50 at 72 h: > 100 µM
[2]
  IC50 at 72 h: > 100 µM

## Cc1cccc(/C=C/C(=O)Nc2ccc(-c3nc4ccccn4c3CN3CCN(c4ccccc4)CC3)cc2)c1
[1]
  IC50 at 72 h: > 100 µM
[2]
  IC50 at 72 h: > 100 µM

## COc1cc2c(cc1OC)CN(Cc1c(-c3ccc(NC(=O)COc4cccc([N+](=O)[O-])c4)cc3)nc3ccccn13)CC2
[1]
  IC50 at 72 h: > 100 µM
[2]
  IC50 at 72 h: > 100 µM

## COc1cc2c(cc1OC)CN(Cc1c(-c3ccc(NC(=O)COc4ccccc4C)cc3)nc3ccccn13)CC2
K562/A02
  Activity: Active
[1]
  IC50 at 72 h: > 100 µM
[2]
  IC50 at 72 h: > 100 µM
K562
  Activity: inactive
